Data from a melting point compilation (Tetko et al.; mined from patent text by program, amines drawn as free bases though some values may be those of a salt).

CSc1cc2c(cc1C(F)(F)F)N(C(=O)Nc1ccc(C(=O)NCCN(C)C)cc1)CC2 showed a melting point of 154 to 155 °C. COc1cc(N)c2nc(OCc3ccc(Cl)cc3)ccc2c1 showed a melting point of 124 to 125 °C. For CC(C)c1cc(-c2cc(C(=O)Cl)ccc2S(C)(=O)=O)on1, the melting point was 102 to 105 °C. Compound COc1cc(CCCC2OC(=O)NC2=O)ccc1OCc1csc(CCc2ccccc2)n1 (stereo not drawn) has a melting point of 136 to 137 °C. For CCC(C(C)C)C(OC(C)=O)C(OC(C)=O)C(C)C1CCC2C3CC(=O)C4CC=CCC4(C)C3CCC12C (stereo not drawn), the melting point was 116 to 118 °C. O=[N+]([O-])c1ccc2c(c1)C(c1ccccc1)=NCc1nc(CO)cn1-2 gave a melting point of 250 to 251 °C. With CCN(CC)C(=O)c1cc2sccc2c(-c2ccccc2Cl)n1 the melting point was 119 °C. CNC(=S)N(C)c1ccc(OC)nc1 showed a melting point of 116 °C. Work on Nc1ccc(-c2ncnn2-c2ccccc2F)cc1 yielded a melting point of 139 to 141 °C. With COc1ccc(-c2ccc(C(C)=NOCCOc3ccc(CC4SC(=O)NC4=O)cc3)cc2)c(OC)c1 (stereo not drawn) the melting point was 186 to 188 °C. In the case of NC(=O)CCCCCN1CCN(c2csc3cc(F)ccc23)CC1, the melting point is reported as 141 to 142 °C. Work on COc1ccccc1CCN(CCCCC(=O)c1ccc2c(c1)CCN2C(=O)Nc1ccccc1)C(=O)OC(C)(C)C yielded a melting point of 136 to 137 °C. COc1ccc2c(c1)CCc1c-2n(-c2ccc(O[Si](C)(C)C(C)(C)C)cc2)c(=O)c2cc(OC)ccc12 gave a melting point of 194 to 195 °C. With O=C1OC(c2ccccc2)C2CCc3cc(OCCCC(F)(F)F)ccc3N12 (stereo not drawn) the melting point was 130 °C. For CN(CCC(=O)O)S(=O)(=O)c1c(Cl)cccc1Cl, the melting point was 115 °C. Work on CC1(C)CCc2c(N3CCSCC3)nc3sc4c(NCc5ccccn5)ncnc4c3c2C1 yielded a melting point of 225 to 226 °C. COC(=O)CC(=O)c1cc2cc(OC)c(OC)cc2s1 gave a melting point of 129 to 130 °C. Compound Cc1cccc(NC(=O)NCC(=O)N(c2ccccc2)C(C)C(=O)N(C)c2ccccc2)c1 (racemic) has a melting point of 214 °C. With CN1C(=O)[C@H](NC(=O)CCc2ccc(Cl)cc2Cl)N=C(c2ccccc2)c2cc(NS(C)(=O)=O)ccc21 the melting point was 130 to 148 °C. Work on CC(C)c1cc(CCC(=O)O)n(Cc2ccc(C(F)(F)F)cc2Cl)n1 yielded a melting point of 117 to 119 °C. With CC(=O)N1CCN(CC#CCn2cncc2C)C1=O the melting point was 93 to 95 °C. COC(=O)C1=C(C)NC2=C(C1c1cccc([N+](=O)[O-])c1)S(=O)(=O)CCC2 (stereo not drawn) showed a melting point of 236 to 238 °C. Cc1ccc(Cn2c(=O)[nH]c3cc(Cl)cc(Cl)c3c2=O)cc1 showed a melting point of 210 to 218 °C. Work on O=c1cnc2cc(Cl)cc(Cl)c2[nH]1 yielded a melting point of 228 to 229 °C. For CCC(CC)C(NS(=O)(=O)c1ccc(C#N)cc1)c1ccnn1-c1ccccc1 (stereo not drawn), the melting point was 135 to 137 °C. With NS(=O)(=O)c1ccc(-c2cccc(-c3nc(-c4ccc(Cl)c(Cl)c4)cc(C(F)(F)F)n3)c2)s1 the melting point was 203 °C. Compound CC(CNc1ccc(Cl)cc1[N+](=O)[O-])OS(C)(=O)=O (stereo not drawn) has a melting point of 106 to 108 °C. Work on CCCCCCc1nc2c(N)nc3ccccc3c2n1CCCCNS(=O)(=O)c1ccccc1 yielded a melting point of 84.8 to 85.4 °C. With CCOc1ccc2nc3[nH]c(=O)[nH]c3cc2c1 the melting point was over 320 °C. With CCCCCCCCCCCCC/C=C(\C(=O)Nc1ccc(C(=O)OC)cc1)c1ccc2c(c1)C(C)(C)CCC2(C)C the melting point was 93 to 94 °C. COc1cccc(C(=O)n2c3c(c4ccccc42)CC(C(=O)O)CC3)c1 (stereo not drawn) showed a melting point of 197 to 200 °C. In the case of COC(=O)/C=C/c1ccc(N2CCCC2=O)nc1, the melting point is reported as 151 to 160 °C. Compound CC(=O)Nc1cc(C(=O)NNC(=O)c2occ(-c3ccccc3)c2-c2ccccc2)ccc1O has a melting point of 233 to 235 °C. Work on COC(=O)N[C@@H](C(=O)O)c1ccccc1 yielded a melting point of 122 to 125 °C. In the case of O=Cc1cc([N+](=O)[O-])cc(Cl)c1S, the melting point is reported as 84 to 89 °C. Cc1[nH]c(C(=O)NCCc2ccccn2)c(C)c1-c1nc2ccc(C(=O)c3ccccc3)cc2[nH]1 gave a melting point of 238 to 244 °C. With CCOC(=O)c1cn(-c2ccc(F)cc2)c2nc(Cl)c(F)cc2c1=O the melting point was 230 to 232 °C. With CCOc1ccc2c(c1)C(N)(c1ccccc1Cl)C(=O)N2 (stereo not drawn) the melting point was 173 to 175 °C. COC(=O)c1ccc(OCC(O)CNC(C)(C)C)cc1 (stereo not drawn) gave a melting point of 88 to 89 °C. In the case of COc1ccc(NC(C)=O)cc1OC(F)F, the melting point is reported as 129 to 130 °C. CCCCNC(=O)N(C)c1cccc(-c2ccc(C=C(OC)C(=O)OC)cc2)c1 gave a melting point of 89 °C. Compound CCS(=O)(=O)N(CC(=O)Nc1ccncc1)C1CC(C)(C)Oc2ccc(F)cc21 (stereo not drawn) has a melting point of 195 °C. With CCN1C(=O)C(C)(C)C(=O)N(C)c2cc(CN(CCn3cc(C)c4oc(C)cc4c3=O)Cc3cc(C)n(C)n3)ccc21 the melting point was 113 to 116 °C. For Nc1cc(O)ccc1/C=C/c1ccc(O)cc1, the melting point was 229 to 232 °C. With CC(=O)CC(=O)NC1CCCCCC1 the melting point was 52 °C. Nc1c(F)c(N2CCC(c3ccncc3)C2)c(F)c2c1c(=O)c(C(=O)O)cn2C1CC1 (stereo not drawn) showed a melting point of 236 to 238 °C. O=C(NC1CCN(CCCOc2ccccc2C(=O)O)CC1)c1ccccc1 showed a melting point of 207 to 208 °C. Work on CCNC(=O)CC1CCN(Cc2cnc3c(C)c(NC(=O)c4ccc(-c5ccc(F)cc5)cc4)ccc3c2)CC1 yielded a melting point of 243 to 245 °C. In the case of COc1ccc2c(c1)Cc1cc(=O)[nH]nc1-2, the melting point is reported as 280 to 284 °C. CC(=O)N(C)c1c(N(C)C)cc(C(=O)CS(C)(=O)=O)cc1N(C)C showed a melting point of 120 °C. Nc1ccc2c(=O)n(Cc3ccccc3)c(=O)n(-c3ccccc3)c2n1 showed a melting point of 261 to 262 °C. CCNC(=O)CC1CN=C(c2cc3cc(Oc4ccc(S(C)(=O)=O)nc4)cc(OC)c3[nH]2)S1 (stereo not drawn) showed a melting point of 236 to 237 °C. For CC(C)(C)c1ccc(OCC(O)CN(CCO)CCO)cc1 (stereo not drawn), the melting point was 45 to 47 °C. Work on CCSC1CN2CCC1CC2 (stereo not drawn) yielded a melting point of 101 to 102 °C. With O=C(O)CCc1ccc(OCCSCCO)cc1 the melting point was 64 to 65 °C. With CC(=O)N1CC[C@H]2Cc3ccccc3[C@@H](c3ccccc3)N2CC1 (racemic) the melting point was 145 to 147 °C. COc1cc(C(C)=NOCc2ccc3nonc3c2)ccc1F gave a melting point of 65 °C. In the case of O=C(O)c1nc2n(n1)-c1cccnc1N(c1ccc(Cl)cc1)C2, the melting point is reported as 234 to 237 °C. COC1=CC(=O)OC1=C(COC(C)=O)C(C)C(C)=O (stereo not drawn) gave a melting point of 54 to 56 °C. With CCNC(C)CN1CCc2c(c(=O)oc3ccccc23)C1 (stereo not drawn) the melting point was 104 to 105 °C. With CCOC(=O)c1nnc2ccc(NC(C)=O)cc2c1O the melting point was 280 to 281 °C. COC(=O)Nc1c(Br)cc(S(=O)(=O)N(C)C)cc1Br gave a melting point of 177 to 178 °C. For CCCCCCCCC#CCC#CCC#CCS(=O)(=O)CC(=O)O, the melting point was 132 °C. In the case of CC(C)(C)C1=CC(=Cc2ccc([N+](=O)[O-])cc2)C=C(C(C)(C)C)C1=O, the melting point is reported as 162 to 163 °C. With Cc1nc(-n2ccc(C(F)(F)F)cc2=O)sc1C(=O)NCc1ccccc1 the melting point was 197 to 198 °C. Work on COCOc1ccc(Cl)c(F)c1C=O yielded a melting point of 44 to 49 °C. For CCCCN1C(=O)NC(CCC(=O)O)C1=O (stereo not drawn), the melting point was 130 °C. Work on CCOC(=O)c1c(CCCn2cncn2)nc2sc3c(c2c1-c1ccc(OC)c(OC)c1)CCN(C(=O)c1ccc(Cl)cc1)C3 yielded a melting point of 114 to 116 °C. In the case of Cc1cc2c(NCc3ccc4c(c3)OCO4)nc(-n3ccnc3)nc2s1, the melting point is reported as 162 °C. For O=C1C[C@@H]2O[C@@H](CS(=O)(=O)c3ccccc3)CN12 (racemic), the melting point was 144 to 146 °C. CC12CCC3c4cc([N+](=O)[O-])c(OCc5ccccc5)cc4CCC3C1CCC2=O (stereo not drawn) gave a melting point of 234 to 235 °C. Work on NC(=O)N(O)[C@H]1CC[C@H](Oc2ccccc2)C1 yielded a melting point of 134 °C. CCc1ccc(OCc2ccc(CO)c(CO)c2)cc1-c1ccc(C(O)(CC)CC)cc1C(C)C showed a melting point of 109 °C. With Cc1occc1S(=O)(=O)C(C)(Cc1ccc(OCCN2CCCCC2)cc1)C(=O)NO (stereo not drawn) the melting point was 115 to 117 °C. For O=C1Nc2ccc(I)cc2C1=NNC(=O)c1ccc(Oc2ccc(CN3CCOCC3)cc2)cc1, the melting point was 252 °C. COc1ccc(-c2cc(F)c(F)cc2-c2ccc(S(C)(=O)=O)cc2)cc1F gave a melting point of 159 to 160 °C. Work on Cc1cn2ccc(N)c(I)c2n1 yielded a melting point of 185 °C. NS(=O)(=O)c1cc(C(=O)CCCCCl)cc2c1CCC2 showed a melting point of 117 to 119 °C. With C=CCNC1=NN=C(c2ccc(Cl)cc2Cl)CS1 the melting point was 188 to 189 °C. O=C(CCS(=O)C(c1ccccc1)c1ccccc1)NO (stereo not drawn) gave a melting point of 159 to 160 °C. Work on COC(=O)NC1CN(C(=O)c2cc(OC)c(OC)c(OC)c2)CCN1C(=O)C1=Cc2cc(OC)c(OC)cc2CCC1 (stereo not drawn) yielded a melting point of 143 to 145 °C. In the case of CC1CCCN(C[C@@H]2COc3ccc(S(C)(=O)=O)cc3O2)C1 (stereo partly drawn), the melting point is reported as 159 °C. Work on CCOC(=O)CC[C@H](NC(=O)c1ccc(C(COC2CCCCO2)CC2CNc3nc(NC(=O)C(C)(C)C)nc(O)c3C2)cc1)C(=O)OCC (stereo partly drawn) yielded a melting point of 183 to 186 °C. Compound COc1ccc(CC(=O)c2ccc(OC)cc2O)cc1 has a melting point of 101 to 102 °C. COc1ccc2c(c1)C(=O)N(c1ccc3c(ccn3C)n1)C2 gave a melting point of 230 to 234 °C. In the case of CCCN(CCC)c1c(CC)nn2c(-c3ccc(N(C)C)cc3C(F)(F)F)cccc12, the melting point is reported as 69.1 to 79.8 °C. With CCCCCCC(C)OC(=O)c1ccc(-c2ccc(-c3ccc(C(=O)OC(C)CCCCCC)cc3)cc2)cc1 (stereo not drawn) the melting point was 81 to 82 °C. Work on COC(=O)[C@H]1C[C@H](NS(C)(=O)=O)c2c(Cl)cc(Cl)cc2N1 (relative stereo) yielded a melting point of 143 to 146 °C. CC(c1ccc(OCc2ccc(Cl)cc2Cl)cc1)n1ccnc1 (stereo not drawn) gave a melting point of 103 to 106 °C. CCC#C[C@]1(C(F)(F)F)O[C@@H](c2ccccc2)C(=O)Nc2ccc(Cl)cc21 (relative stereo) showed a melting point of 198 to 199 °C. O=C1NCCCN1C1CCN(CC[C@H](c2ccc(Cl)c(Cl)c2)[C@@H](O)c2ccnn2-c2ccccc2)CC1 (racemic) gave a melting point of 174 to 176 °C. Compound O=C1CC[C@@H](CO)N1Cc1ccccc1 has a melting point of 82 to 84 °C. Clc1ccc2cc(CBr)c3ccsc3c2c1 showed a melting point of 144 to 146 °C. Compound CNC(=O)n1nc(Oc2ccc([N+](=O)[O-])cc2C(F)(F)F)c(C)c1C has a melting point of 113 to 115 °C. For CCOC(=O)C1=C(N)NC(C)=C(C(=O)O)C1c1ccccc1-c1ccccc1 (stereo not drawn), the melting point was 182 °C. With CC(=O)N[C@H](COCc1cc(C)cc(C)c1)Cc1ccccc1 the melting point was 76 to 78 °C. Compound CCN(c1cc(S(C)(=O)=O)ccc1C(=O)O)S(C)(=O)=O has a melting point of 199 to 200 °C. CC(=O)OC1CSC(Sc2ccccc2C#N)C(OC(C)=O)C1OC(C)=O (stereo not drawn) gave a melting point of 160 °C.
